Measured values taken from PubChem BioAssay AID2305 (GlaxoSmithKline (GSK), 2010).
Values joined by “and” are separate entries in the source; they are usually repeats but may differ in a detail not shown here. Identical values can stand only once.

system: P. falciparum 3D7 growth, pLDH absorbance; test: blood-stage malaria parasite growth potency – strain 3D7, dose response (AID 2305)

SMILES	IC50
COc1cc2c(c(OC)c1[N+](=O)[O-])C=CC1(O2)N(C)c2ccc([N+](=O)[O-])cc2C1(C)C (centres undefined)	0.91 µM
CNCCN(C)C(=O)Oc1c(Br)c(C)nc(C)c1-c1ccc(Oc2ccc(OC(F)(F)F)cc2)cc1	0.11 µM
CCNc1cc(C(=O)N[C@@H](Cc2ccccc2)[C@H](O)CNCCc2cc(OC)cc(OC)c2)cc(N2CCCCS2(=O)=O)c1	1.14 µM
CN1CCC(Oc2cc(NC(=O)Nc3ccc(-c4ccncc4)c(C(F)(F)F)c3)ccc2Cl)CC1	0.78 µM
CC[C@H]1CN2CC[C@H]1C[C@H]2[C@H](O)c1cc(N2CCCC2)nc2ccc(OC)cc12	0.04 µM
CCN(CC)CCCN(C(=O)Nc1c(Cl)cncc1Cl)c1nc(-c2ccc(F)cc2)cs1	0.24 µM
Cc1[nH]c2c(c(=O)c1Cl)-c1ccc(Oc3cccc(C(F)(F)F)c3)cc1C2=O	0.04 µM
Cn1cncc1C(=O)Nc1ccc(-c2cccc(-c3nc4ccc(F)cc4[nH]3)c2)cc1	0.82 µM
Nc1ccc2[nH]cc(C3CCN(CC4CCC(NC(=O)/C=C/c5ccc(Cl)c(Cl)c5)CC4)CC3)c2n1 (centres undefined)	0.73 µM
NC(=O)c1cccc(C(=O)Nc2cccc(-c3ccc(-c4nc5ccc(C(F)(F)F)cc5[nH]4)cc3)c2)c1	0.52 µM
Cc1ccc2nc(Cl)c3cc(C(=O)NCCCN4CCCC4)sc3c2c1	1.14 µM
COc1ccc2nccc(C(=O)NC3CCC(CCN4CCc5cc(C#N)ccc5C4)CC3)c2c1 (centres undefined)	1.16 µM
CN1C(C)(C)CC(NC(=O)c2ccc(-c3nc4cc(Cl)c(Cl)cc4[nH]3)cc2)CC1(C)C	0.73 µM
CC(=O)N(C)C1CCN(Cc2cccc(-c3ccc(-c4nc5ccc(C(F)(F)F)cc5[nH]4)cc3)c2)C1 (centres undefined)	0.56 µM
Cc1cc(N[C@@H](CC(C)C)C(=O)NCCc2ccccc2)nc(NCC2CCCCC2)n1	0.9 µM
CCCC(C)c1cnc2nc(N)nc(N)c2c1C (centres undefined)	0.03 µM
CCOC(=O)c1c(CCc2ccc(C(F)(F)F)cc2)nc2c(c1-c1ccc(C(=O)N[C@@H](C)c3ccncc3)cc1)C(=O)N1CCC[C@@H]21	0.92 µM
CC(=O)Nc1ccc(S(=O)(=O)NC2=NC(C)(C)N(OCc3ccc(Cl)c(Cl)c3)C(N)=N2)cc1	0.03 µM
CN1CCC(NCc2ccc(-c3ccc(S(=O)(=O)NC4CCC4)s3)cc2)CC1	0.85 µM
COc1ccc(C(=C(C)CC(C)C(=O)O)c2ccccc2)cc1 (centres undefined)	0.84 µM
COc1ccc(Cn2c(SCc3ccc(C)cc3)nc3cc(OC)c(OC)cc3c2=N)cc1Cl	0.98 µM
CCCc1cc(N2CCC(N3CCCC3)CC2)nc(Nc2ccc(OC)cc2)n1	0.81 µM
O=C(Nc1cccc(CN2CCCN(Cc3ccsc3)CC2)c1)c1ccc(Cl)c(Cl)c1	0.88 µM
COc1ccc(-c2nccc(NC(N)=NCc3ccccc3)n2)cc1	0.67 µM
Cc1cc(F)ccc1-c1nc(N(C)CCN(C)C(=O)N(C)c2ccccc2)nc2c1ccc(=O)n2-c1c(F)cccc1F	1.24 µM

SMILES	IC50
Cc1[nH]c2ccc(O)cc2c1C1CCN(CC2CCC(NC(=O)/C=C/c3c(Cl)cccc3Cl)CC2)CC1 (centres undefined)	0.82 µM
CN(C)c1ccc(C2c3nc[nH]c3CCN2C(=O)Nc2cccc([N+](=O)[O-])c2)cc1 (centres undefined)	0.97 µM
CCCCCCN1CCC(CNCc2cccc([N+](=O)[O-])c2)CC1	0.72 µM
CCNC(=O)Nc1ccc(-c2cccc(-c3nc4c(C)cccc4[nH]3)c2)cc1	0.76 µM
CNCCNCc1ccc(-c2ccc(-c3nc4c(C)cccc4[nH]3)cc2)cc1	0.67 µM
Cc1c(CNCCCNc2nc3cscc3[nH]2)sc(C(F)F)c1Br	0.94 µM
COc1ccc2nccc(NC(=O)C3(O)CCC(NCc4ncc5c(c4Cl)OCCO5)CC3)c2n1 (centres undefined)	0.25 µM
CC(C)C(=O)Nc1c(F)cc(F)cc1CCc1ccc(O)cc1	0.5 µM
Cc1[nH]n(-c2cccc(C(F)(F)F)c2)c(=O)c1-c1ccc(Cl)cc1	0.86 µM
CNCCCNc1ccnc2cc(Cl)ccc12	0.06 µM
Cc1cc(O)c2c(c1)OC(C)(C)C=C2C1=CCN(Cc2ccccc2)CC1	0.79 µM
CN(C)CCN(C)Cc1nc(-c2ccc3c(Nc4ccc(Oc5ccccc5)cc4)ccnc3c2)cs1	0.21 µM
COc1cc(Cc2cnc(N)nc2N)ccc1OCC(=O)Nc1ccc(C)cc1	0.48 µM
CCOc1ccc2nc(C)cc(NN=Cc3ccccc3[N+](=O)[O-])c2c1	0.03 µM
O=C(C=C1c2ccccc2-c2ccccc21)NC1CCC(CN2CCC(c3c[nH]c4ccccc34)CC2)CC1 (centres undefined)	0.79 µM and 0.7 µM
O=C(Nc1ccccc1)c1cccc(Nc2nccc(Nc3ccc(Oc4ccccc4)cc3)n2)c1	1.55 µM
S=C(NCCc1ccc(Cl)cc1)NC1CCC(CN2CCC(c3c[nH]c4ccccc34)CC2)CC1 (centres undefined)	0.7 µM
Cc1cc(C)nc(-n2[nH]c(C)c(Cc3ccc(C(C)(C)C)cc3)c2=O)n1	1.01 µM
COc1cc(C)nc2ccc(NC(=O)c3cc(C(F)(F)F)cc(C(F)(F)F)c3)cc12	0.91 µM
COc1cc(C)ccc1S(=O)(=O)N1CCCCC(c2ccc(C(F)(F)F)cc2)=N1	0.77 µM
COc1ccc(NC(=O)Nc2cccc(-c3ccncc3)c2)cc1N1CCN(C)CC1	0.55 µM
Cc1cccc2[nH]c(-c3cc(-c4cn[nH]c4)cnc3N)nc12	0.22 µM
COc1ccc2nccc(N(C)CC3(O)CCN(CCc4ccc5c(c4)OCCO5)CC3)c2n1	0.14 µM
CC(C)CCNc1nc(NCc2ccccc2)c2cc(O)ccc2n1	0.11 µM
